Measured values: patent US9579347B2, “Methods for enhancing the effect of EGCg on mitigating skeletal muscle loss” (ABBOTT LABORATORIES, priority 2012, dated 2017)

Test system: serum-starved C2C12 myotubes
Test: release of radiolabeled phenylalanine (total protein degradation) from serum-starved C2C12 myotubes
Format: cell-based, murine
Details: serum-free medium, 24 hours, vs serum (NC) and serum-free (NS) controls
Procedure: The role of EGCg alone and EGCg in combination with zinc in preventing muscle protein degradation was evaluated in an in vitro cell-based assay using serum-starved C2C12 myotubes, i.e., differentiated, elongated murine myoblasts, which are routinely used to model adult skeletal myofibers in cell culture. This assay measured the release of radiolabeled phenylalanine (Phe) from myotubes in response to a catabolic stimulus. Under normal growth conditions in the presence of growth factors supplied by 2% horse serum, the myotubes actively incorporated the amino acid Phe into newly synthesized muscle proteins. This is shown as the negative control for proteolysis (NC) in lane 1 of FIG. 1, i.e., the serum control. In the absence of the 2% horse serum, specifically C2C12 cultured in a serum-free DMEM medium, the muscle proteins began to break down, and phenylalanine was subsequently released as a free amino acid. This is shown as the serum-free, positive control for proteolysis (NS) in lane 2 of FIG. 1. […] 10 μM EGCg was added to serum-free and serum-starved myotubes alone, i.e., lane 3 of FIG. 1.
The experiment was replicated 2 times where n=6 over the same period of time for each sample, i.e., 24 hours for each sample. Results are expressed as mean±S.E.M and statistical analysis between groups was determined by one-way ANOVA followed by Tukey's test.

SMILES: O=C(O[C@@H]1Cc2c(O)cc(O)cc2O[C@@H]1c1cc(O)c(O)c(O)c1)c1cc(O)c(O)c(O)c1 [EGCg, epigallocatechin gallate]
- total protein degradation (release of radiolabeled Phe) (10 μM EGCg alone, FIG. 1 lane 3): greater inhibition of total protein degradation

SMILES: O=S(=O)([O-])[O-].[Zn+2] [zinc, zinc sulfate]
- total protein degradation (release of radiolabeled Phe) (10 μM zinc sulfate alone, FIG. 2 lane 3): promoted or increased total protein degradation
